Converted amounts (≈) assume the structure as drawn.
Key:
[1] = system: Apis mellifera; conditions: acute, mortality
[2] = system: Folsomia candida; conditions: chronic/long-term; duration: 28 days; reproduction
[3] = system: Colinus virginianus; conditions: reproduction developmental
[4] = system: Daphnia magna; conditions: chronic/long-term; duration: 21 days
[5] = system: Bibionidae; conditions: chronic/long-term; duration: 28 days
[6] = system: Anas platyrhynchos; conditions: acute; oral; unspecified; mortality
[7] = system: Rattus norvegicus; conditions: acute; oral; mortality
[8] = system: Oncorhynchus mykiss
[9] = system: Aphidius rhopalosiphi; test: LR50; higher = less toxic

COC(=O)Nc1cccc(OC(=O)Nc2cccc(C)c2)c1 [Phenmedipham]
LD50 ([1]; dermal): > 100 µg/piece | LD50 ([1]; oral, unspecified): > 105 µg/piece | NOEC [2]: 500 mg/kg | NOAEL [3]: 121 mg/kg-day | NOEC [4]: 0.005 mg/L | NOEC [5]: ≥ 6.86 mg/L | LD50 [6]: > 2500 mg/kg-day | LD50 [7]: > 5000 mg/kg-day | LC50 ([8]; acute, duration: 96 hours, mortality): 1.84 µg/mL (≈ 6.13 µM) | NOEC ([8]; chronic/long-term, duration: 92 days, growth): 0.041 mg/L | LR50 ([9]; acute, mortality): > 294 g/ha | LR50 ([9]; chronic/long-term, duration: 14 days, no effects): > 960 g/ha

From EPA's ToxValDB 9.5 (doi:10.2903/j.efsa.2018.5151)
